Data published in BindingDB's records for doi:10.1021/jm950717a (Bristol-Myers Squibb, 1996).

What follows are molecules tested against T1, Dimer of Gag-Pol polyprotein [489-587] (Human immunodeficiency virus 1, UniProt P12497) (assay: Protease Inhibition Assay). Conditions: pH 5.5; 37 °C.
T1 construct: 489-587
Method: IC50 values are determined by inhibition of the cleavage of the peptidic substrate [V-S-Q-N-(beta-naphthylalanine)-P-I-V]. The IC50 value represents the concentration of inhibitor required to inhibit cleavage of substrate by 50%. The assay is performed by addition of purified enzyme to a mixture of inhibitor and the above substrate at pH 5.5. The reaction medium is incubated for 30 min at 37 °C followed by quenching with H3-PO4 and then analyzed by reverse phase HPLC UV (220 nm) detection.

Structure (SMILES)	IC50
CC(C)(C)OC(=O)N[C@@H](Cc1ccccc1)[C@H](O)CNC[C@@H](O)[C@H](Cc1ccc(OCC(O)c2cccnc2)cc1)NC(=O)OC(C)(C)C (stereo partly drawn) [[1S-[1R*,2S*(2S*,3R*)]]-[3-[[3-[[(1,1-Dimethylethoxy)-carbonyl]amino]-2-hydroxy-4-[4-[2-hydroxy-2-(3-pyridinyl)ethoxy]phenyl]butyl]amino]-2-hydroxy-1-]	110 nM
CC(C)(C)OC(=O)N[C@@H](Cc1ccccc1)[C@H](O)CNC[C@@H](O)[C@H](Cc1ccc(OCC(=O)N2CCOCC2)cc1)NC(=O)OC(C)(C)C [tert-butyl N-[(2S,3R)-4-{[(2R,3S)-3-{[(tert-butoxy)carbonyl]amino}-2-hydroxy-4-{4-[2-(morpholin-4-yl)-2-oxoethoxy]phenyl}butyl]amino}-3-hydroxy-1-phenylbutan-2-yl]carbamate]	100 nM
CC(C)(C)OC(=O)N[C@@H](Cc1ccccc1)[C@H](O)CNC[C@@H](O)[C@H](Cc1ccc(OCCN2CCOCC2)cc1)NC(=O)OC(C)(C)C [tert-butyl N-[(2S,3R)-4-{[(2R,3S)-3-{[(tert-butoxy)carbonyl]amino}-2-hydroxy-4-{4-[2-(morpholin-4-yl)ethoxy]phenyl}butyl]amino}-3-hydroxy-1-phenylbutan-2-yl]carbamate]	100 nM
